Common to all, as to format: cell-based
One test has as its system H929 cells. Nature of the test: Gene expression changes by Affymetrix microarray in H929 cells. Particulars: POM 1 μM, 24 hour. How it is done:
FIG. 1A-1F. Down regulation of UHRF1 transcription by IMiDs correlates with drug sensitivity of multiple myeloma. (1A) Volcano plot of protein expression changes determined by mass spectrometry in H929 cells at 24 hr of treatment with CC-220 (0.1 μM) or DMSO control. X axis, Log2fold change (FC); Y axis, significance,-log 10 [p-value]. […] (1B) Volcano plot of gene expression changes determined by Affymetrix microarray in H929 cells treated with POM (1 μM) or DMSO for 24 hr. X axis, Log2fold change (FC); Y axis, significance,-log 10 [p-value], n=2 technical replicates). […] (1C) Western blot analysis protein expression of UHRF1, Ikaros, Aiolos and ZFP91 in H929 cells treated with 1 μM POM for indicated time. (1D) qRT-PCR analysis of UHRF1 gene expression levels in cells as in (1C). Error bars represent the SEM from duplicate measurements. (1E) Western blot analysis protein expression of UHRF1 and indicated proteins in MM cells treated with DMSO (−) or 1 μM POM (+) for 3 days. GAPDH serves as a loading control. (1F) Thymidine incorporation of various MM cell lines treated with indicated dose of POM for 3 days. Error bars represent the SEM from technical replicates.
Given that UHRF1 has been reported to be oncogenic in other cancer types, including MM (Gu et al., 2020, BMC Biol, 18:33), the functions of UHRF1 in MM and the mechanisms underlying its gene regulation in response to immunomodulator drugs that binds to cereblon was explored.

A further test concerns H3 and H3K27ac. Put plainly: Western blot of global histone H3 and H3K27ac levels. To be noted: H929 and MM1.S cells, 1 μM POM, 24 hr. How it is done: FIG. 7A-7B. UHRF1 expression is positively regulated by Ikaros, Aiolos and ZFP91 in MM1.S cells. (7A) Western blot analysis protein expression of UHRF1, Ikaro and Aiolos in stably transduced MM1.S cells after Dox induction (0, 20, or 50 ng/ml) for 3 days of non-target shRNA (shNT) or shRNAs targeting Ikaros (shIKZF1) or Aiolos (shIKZF3). (7B) Western blot analysis histone H3 and H3K27ac levels from H929 and MM1.S cells treated with DMSO or 1 μM POM for 24 hr.
Cells were lysed with cell lysis buffer (50 mM TrisHCl pH7.4, 250 mM NaCl, 0.5% Triton X100, 10% glycerol) supplemented with protease inhibitor cocktail. Cell lysates were subjected to sonication to breakdown nuclei and reduce viscosity caused by released genomic DNA. The protein concentration was measured by a Bradford Protein Assay (Bio-Rad). Samples were mixed with SDS sample buffer at 95° C. for 5 minutes. Whole cell lysates were resolved on NuPAGE™ 4-12% Bis-Tris Midi Protein Gels (Invitrogen) and transferred onto nitrocellulose membranes, which were then subjected to blocking in Intercept (TBS) Blocking Buffer (LI-COR). Proteins of interested were detected incubation with primary antibodies listed below at 4° C. overnight. Then the membrane was incubated with either IRDye 680RD goat anti-Mouse IgG (H+L) or IRDye 800CW goat anti-Rabbit IgG (H+L) (1:10,000; LI-COR). Bends were visualized by Odyssey Imaging System (LI-COR).

In the next test the test system is Aiolos at UHRF1 promoter. Put plainly: ChIP-qPCR of Aiolos occupancy at UHRF1 gene. To be noted: H929 cells, 1 μM POM, 24 hr. As for the experimental part:
FIG. 2A-2E. UHRF1 expression is positively regulated by Ikaros and Aiolos in IMiDs sensitive MM cells. (2A) Western blot analysis protein expression of UHRF1, Ikaros, Aiolos, ZFP91 and Cereblon expression in control [shLuciferase (shLuc)] and cereblon knockdown (shCRBN) H929 cells treated with DMSO and 1 μM POM for 3 days. GAPDH, loading control. Arrow head, UHRF1. (2B) qRT-PCR analysis of UHRF1 gene expression levels in cells as in (2A). Data was normalized to ACTB. Error bars represent the SEM of technical duplicates. *** P<0.001 (Two-tailed unpaired Student's t-test). […]
ChIP-qPCR was performed using ChIP-IT Express Enzymatic kit (Active Motif) according to the manufacture manual with some modifications. […] DNA was purified using a PCR purification kit (Qiagen) and analyzed by qPCR using the Power SYBR Green PCR Master Mix.
Procedures afterward were performed according to the manufacture manual. Eluted DNA was purified using a PCR purification kit (Qiagen) and analyzed by quantitative real-time PCR on the Viia 7 Real Time PCR System using the Power SYBR Green PCR master mix (Applied Biosystems). Statistical differences were calculated using a […] unpaired Student's t-test.

Here are results for one compound from patent US20260234630A1, “Methods for Treating Multiple Myeloma” (Celgene Corporation, priority 2022, published 2026).

Consider `Nc1cccc2c1C(=O)N(C1CCC(=O)NC1=O)C2=O` (centres unmarked) [POM, pomalidomide], for which, in the test on H929 cells, the “UHRF1 gene expression (microarray)” value is “one of the most significantly downregulated genes”; the “expression of interferon response genes IFIT1 and IFIT3” value is listed as “drastic induction”; the “gene expression of cell cycle regulators E2F1, MYB and CDC45” value was “most significantly downregulated genes”. Further, the “global levels of H3 and H3K27ac” value in the test with H3 and H3K27ac was “not affected”. Moreover, the “UHRF1 promoter occupancy of Aiolos” value in the test with Aiolos at UHRF1 promoter is “drastically reduced”.
